Assay results published in US9409864B2, “Sulfonamide TRPA1 receptor antagonists” (ARIO PHARMA LIMITED, priority 2013, dated 2016).
Read-outs that look alike come from different tables or passages of the source.

Key:
[1] = test system: oxaliplatin-induced mechanical hyperalgesia in rats; experiment: Oxaliplatin-induced mechanical hyperalgesia in rats; assay type: in vivo; conditions: Rattus norvegicus, 168 h, 30 μmol/kg oral, 7 days post i.v. oxaliplatin 2.5 mg/kg
Protocol: Oxaliplatin-Induced Mechanical Hyperalgesia in Rats
The method described by Nassini et al. (Pain, 2011, 152(7), 1621-31) was used with minor modifications. Restrained rats were treated with a single intravenous bolus injection of oxaliplatin (2.5 mg/kg) dissolved in normal saline. This approach was sufficient to elicit reproducible allodynic behaviour evident 3 days post injection and during the day thereafter. For convenience all acute experiments were conducted 7 days post injection when compounds were orally administered at 30 μmol/kg.

[2] = test system: PF-4840154-induced mechanical hyperalgesia in rats; experiment: Agonist (PF-4840154)-induced mechanical hyperalgesia in rats; assay type: in vivo; conditions: Rattus norvegicus, 30 μmol/kg oral, PF-4840154 0.05 nmol/50 μl/paw intraplantar
From the text: Agonist (PF-4840154)-Induced Mechanical Hyperalgesia in Rats
The method is used to investigate the anti-hyperalgesic effects of the compounds listed in the present invention following agonist (PF-4840154)-induced hyperalgesic responses. The activity is indicative of TRPA1 receptor occupancy following oral dosing. Specifically, male SD rats (Charles River, Italy) weighing 70-100 g. were used. The anti-hyperalgesic effects were investigated using the electronic dynamometer test. PF-4840154 (Sigma, USA) was used to induce mechanical hyperalgesia. Local, intraplantar injection of PF-4840154 at 0.05 nmol/50 μl/paw caused the reduction of the hind paw withdrawal response induced by mechanical stimuli. Mechanical stimulation was induced in basal condition and 30, 60, 120, 180 and 240 minutes after the oral administration of the antagonists dissolved in 2.5% DMSO and 30% Solutol. Compounds were orally administered (30 μmol/kg/10 ml) to rats 1 hour before the injection of PF-4840154 into the plantar surface of a rat's hind using a micro syringe.

[3] = target: T1, native human TRPA1 receptors (Homo sapiens, UniProt O75762); experiment: PF-4840154 (1 μM)-induced Ca2+ fluorescence measurements in A549 cell line; assay type: cell-based; conditions: for inhibition at 10 µM: 10 μM compound against 1 μM PF-4840154, A549 cells; for IC50: against PF-4840154 (1 μM)-evoked [Ca2+]i mobilization, A549 cells
T1 construct: stably expressing native human TRPA1 receptors were used; endogenous in cells; host or cells: A549 human lung adenocarcinoma epithelial cell line
Procedure, shortened: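 A549 cells stably expressing native human TRPA1, Fluo-4 AM loaded; fluorescence Ca2+ read in HBSS with probenecid and Brilliant Black at 36.5 °C. Compounds tested alone for agonism and against 1 μM PF-4840154 for inhibition at initial 10 μM; IC50 from full concentration-response curves for selected compounds.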

[4] = target: T2, TRPA1 (cultured rat dorsal root ganglia neurons) (Rattus norvegicus, UniProt Q6RI86); experiment: PF-4840154 (10 μM)-induced Ca2+ fluorescence measurements in cultured rat dorsal root ganglia neurons; assay type: cell-based; conditions: against 10 μM PF-4840154-induced [Ca2+]i mobilization, primary culture of rat dorsal ganglia neurons
T2 construct: calcium assay data obtained in primary culture of rat dorsal ganglia neurons; from tissue; host or cells: primary culture of dorsal root ganglia neurons from male SD rats
Protocol: PF-4840154 (10 μM)-Induced Ca^2+ Fluorescence Measurements in Cultured Rat Dorsal Root Ganglia Neurons
Male SD rats (˜50 g, Charles River, Italy) were terminally anaesthetized and decapitated. Dorsal root ganglia were removed and placed in cold Hank's balanced salt solution (HBSS) before being transferred to collagenase (2 mg/ml) and trypsin (1 mg/ml) for 35 min at 37° C. The ganglia, placed in cold DMEM supplemented with 10% fetal bovine serum, 10% horse serum, 2 mM L-glutamine, 100 U/ml penicillin and 100 μg/ml streptomycin, were dissociated in single cells by several passages through a series of syringe needles (23G down to 25G). The medium and the ganglia were filtered to remove debris, topped up with 4 ml of DMEM medium and centrifuged (1100 rpm for 6 min). The final cell pellet was re-suspended in DMEM medium [supplemented with 100 ng/ml mouse Nerve Growth Factor (mouse-NGF-7S) and cytosine-β-D-arabinofuranoside free base (ARA-C) 2.5 μM]. The cells were plated on poly-L-lysine (8.3 μM)- and laminin (5 μM)-coated 25 mm glass cover slips and kept for 2 days at 37° C. in a humidified incubator gassed with 5% CO2 and air, then treated with Fura-2-AM-ester (5 μM) in a Ca^2+ buffer solution having the following composition (mM): CaCl2 1.4, KCl 5.4, MgSO4 0.4, NaCl 135, D-glucose 5, HEPES 10 with BSA (0.1%), at pH 7.4, for 40 min at 37° C. The cells were then washed twice with the Ca^2+ buffer solution and transferred to a chamber on the stage of a Nikon eclipse TE300 microscope. Fura-2-AM-ester was excited at […] to indicate relative [Ca^2+]i changes by the F340/F380 ratio recorded with a dynamic image analysis system (Laboratory Automation 2.0, RCS, Florence, Italy) and the cells were allowed (at least 10 min) to attain a stable fluorescence before beginning the experiment. A calibration curve was set up using buffer containing Fura-2-AM-ester and determinant concentrations of free Ca^2+. This curve was then used to convert the data obtained from the F340/F380 ratio to [Ca^2+]i (nM).
All exemplified compounds were tested at the concentration of 10 μM against the calcium uptake induced by 10 μM PF-4840154. For selected examples, the entire concentration response curves were constructed and the respective IC50 value calculated.

[5] = read-out: % of reversal of mechanical allodynia
[6] = read-out: Maximal inhibition (%)

T2 sequence (Q6RI86 whole entry): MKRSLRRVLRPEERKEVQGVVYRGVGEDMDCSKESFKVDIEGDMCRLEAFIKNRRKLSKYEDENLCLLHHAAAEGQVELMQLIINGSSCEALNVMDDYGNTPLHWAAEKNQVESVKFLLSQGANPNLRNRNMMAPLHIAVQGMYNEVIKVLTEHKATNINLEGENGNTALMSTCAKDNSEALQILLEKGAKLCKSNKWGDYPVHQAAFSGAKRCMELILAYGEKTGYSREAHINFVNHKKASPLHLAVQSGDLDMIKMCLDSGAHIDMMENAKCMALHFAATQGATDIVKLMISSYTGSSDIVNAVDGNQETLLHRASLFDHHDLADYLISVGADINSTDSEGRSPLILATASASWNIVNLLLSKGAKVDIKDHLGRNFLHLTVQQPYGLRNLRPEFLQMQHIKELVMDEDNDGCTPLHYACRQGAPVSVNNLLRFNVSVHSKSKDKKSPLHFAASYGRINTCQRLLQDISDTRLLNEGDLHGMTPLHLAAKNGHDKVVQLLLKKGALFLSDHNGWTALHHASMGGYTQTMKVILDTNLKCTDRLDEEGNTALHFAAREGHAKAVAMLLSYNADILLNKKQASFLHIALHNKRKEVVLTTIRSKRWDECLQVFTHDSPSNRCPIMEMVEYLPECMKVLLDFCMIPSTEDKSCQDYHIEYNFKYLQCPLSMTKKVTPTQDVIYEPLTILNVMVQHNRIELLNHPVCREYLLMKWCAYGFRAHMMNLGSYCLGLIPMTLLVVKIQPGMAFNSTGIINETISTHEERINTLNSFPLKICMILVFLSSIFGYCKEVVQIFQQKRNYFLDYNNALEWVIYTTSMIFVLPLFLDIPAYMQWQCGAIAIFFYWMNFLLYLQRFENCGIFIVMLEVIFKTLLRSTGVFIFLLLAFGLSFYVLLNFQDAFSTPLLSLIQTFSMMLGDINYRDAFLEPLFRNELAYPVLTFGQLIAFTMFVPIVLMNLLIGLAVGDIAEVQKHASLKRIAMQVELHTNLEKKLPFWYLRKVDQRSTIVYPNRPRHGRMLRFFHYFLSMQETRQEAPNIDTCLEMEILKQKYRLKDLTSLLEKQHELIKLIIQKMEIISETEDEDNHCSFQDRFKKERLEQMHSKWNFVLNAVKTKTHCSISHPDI
T1 sequence (O75762 whole entry): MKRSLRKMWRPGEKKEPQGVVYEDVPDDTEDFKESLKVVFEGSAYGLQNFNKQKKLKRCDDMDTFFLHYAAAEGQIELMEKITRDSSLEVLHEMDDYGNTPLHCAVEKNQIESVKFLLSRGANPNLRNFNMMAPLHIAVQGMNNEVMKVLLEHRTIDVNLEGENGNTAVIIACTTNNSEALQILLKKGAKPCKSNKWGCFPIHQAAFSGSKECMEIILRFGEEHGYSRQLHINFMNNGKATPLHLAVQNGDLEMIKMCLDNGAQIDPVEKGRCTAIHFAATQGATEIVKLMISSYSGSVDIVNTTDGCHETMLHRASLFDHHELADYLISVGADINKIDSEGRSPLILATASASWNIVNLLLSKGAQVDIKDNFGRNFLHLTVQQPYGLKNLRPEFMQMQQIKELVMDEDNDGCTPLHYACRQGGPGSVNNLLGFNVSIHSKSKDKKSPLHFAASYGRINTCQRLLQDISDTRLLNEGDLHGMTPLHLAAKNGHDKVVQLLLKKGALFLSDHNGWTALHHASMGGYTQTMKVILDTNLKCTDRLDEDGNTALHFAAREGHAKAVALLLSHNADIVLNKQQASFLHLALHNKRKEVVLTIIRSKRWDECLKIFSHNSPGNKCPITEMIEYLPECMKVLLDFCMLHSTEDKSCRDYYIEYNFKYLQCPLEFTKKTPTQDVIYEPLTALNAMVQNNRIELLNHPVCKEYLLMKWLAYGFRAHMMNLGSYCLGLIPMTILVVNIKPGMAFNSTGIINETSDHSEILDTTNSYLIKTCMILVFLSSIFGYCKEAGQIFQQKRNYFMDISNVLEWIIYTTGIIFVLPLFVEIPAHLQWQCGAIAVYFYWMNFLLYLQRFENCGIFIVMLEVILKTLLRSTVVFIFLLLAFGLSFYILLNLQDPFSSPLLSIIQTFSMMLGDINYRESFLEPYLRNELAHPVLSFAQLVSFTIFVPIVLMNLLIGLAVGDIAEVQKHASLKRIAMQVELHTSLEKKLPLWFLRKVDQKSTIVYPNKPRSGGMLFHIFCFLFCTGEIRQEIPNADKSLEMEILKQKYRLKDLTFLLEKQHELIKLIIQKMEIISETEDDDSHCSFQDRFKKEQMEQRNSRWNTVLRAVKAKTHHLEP

Structure (SMILES) | inhibition at 10 µM [3] [%] | IC50 [3] [nM] | IC50 [4] [nM] | inhibition in vivo at 30 µmol/kg [1, 5] [%] | inhibition in vivo at 30 µmol/kg [1, 6] [%] | inhibition in vivo at 30 µmol/kg [2, 5] [%] | inhibition in vivo at 30 µmol/kg [2, 6] [%]
C=C(C(=O)NCc1ccnc(-c2ccc(C(F)(F)F)cc2)c1)N(CC)S(=O)(=O)c1ccc(F)cc1 [Example 1, 2-[ethyl-(4-fluorophenyl)sulfonyl-amino]-N-[[2-[4-(trifluoromethyl)phenyl]-4-pyridyl]methyl]prop-2-enamide] | 100 | 15 | 14 | 97 | 97 | 80 | 80
C=C(C(=O)NCc1ccnc(-c2ccc(OC(F)(F)F)cc2)c1)N(CC)S(=O)(=O)c1ccc(Cl)s1 [Example 7, 2-[(5-chloro-2-thienyl)sulfonyl-ethyl-amino]-N-[[2-[4-(trifluoromethoxy)phenyl]-4-pyridyl]methyl]prop-2-enamide] | 100 | 36 | 29 | – | – | 74 | 74
C=C(C(=O)NCc1cccc(-c2ccc(C(F)(F)F)cc2)c1)N(CC)S(=O)(=O)c1ccc(Cl)cc1 [Example 10, 2-[(4-chlorophenyl)sulfonyl-ethyl-amino]-N-[[3-[4-(trifluoromethyl)phenyl]phenyl]methyl]prop-2-enamide] | 99 | 25 | 47 | – | – | 63 | 63
C=C(C(=O)NCc1cc(-c2ccc(C(F)(F)F)cc2)nc(N2CCCC2)c1)N(CC)S(=O)(=O)c1ccc(Cl)cc1 [Example 14, 2-[(4-chlorophenyl)sulfonyl-ethyl-amino]-N-[[2-pyrrolidin-1-yl-6-[4-(trifluoromethyl)phenyl]-4-pyridyl]methyl]prop-2-enamide] | 100 | 40 | 60 | – | – | 75 | 75
C=C(C(=O)NCc1cc(-c2ccc(C(F)(F)F)cc2)nc(N2CCCC2)c1)N(CC)S(=O)(=O)c1ccc(F)cc1 [Example 38, 2-[ethyl-(4-fluorophenyl)sulfonyl-amino]-N-[[2-pyrrolidin-1-yl-6-[4-(trifluoromethyl)phenyl]-4-pyridyl]methyl]prop-2-enamide] | 100 | 17 | 14 | – | – | 87 | 87

More lines, in order of falling IC50 [3], values ahead:

inhibition at 10 µM [3] [%] | IC50 [3] [nM] | IC50 [4] [nM] | Structure (SMILES) | inhibition in vivo at 30 µmol/kg [1, 5] [%] | inhibition in vivo at 30 µmol/kg [1, 6] [%] | inhibition in vivo at 30 µmol/kg [2, 5] [%] | inhibition in vivo at 30 µmol/kg [2, 6] [%]
100 | 74 | 68 | C=C(C(=O)NCc1cc(-c2ccc(C(F)(F)F)cc2)nc(-c2ccc(C(F)(F)F)cc2)c1)N(CC)S(=O)(=O)c1ccc(Cl)cc1 [Example 19, N-[[2,6-bis[4-(trifluoromethyl)phenyl]-4-pyridyl]methyl]-2-[(4-chlorophenyl)sulfonyl-ethyl-amino]prop-2-enamide] | – | – | 74 | 74
100 | 22 | 32 | C=C(C(=O)NCc1cc(-c2ccc(C(F)(F)F)cc2)nc(N2CCCC2)c1)N(CC)S(=O)(=O)c1ccc(Cl)s1 [Example 15, 2-[(5-chloro-2-thienyl)sulfonyl-ethyl-amino]-N-[[2-pyrrolidin-1-yl-6-[4-(trifluoromethyl)phenyl]-4-pyridyl]methyl]prop-2-enamide] | – | – | 72 | 72
99 | 17 | 20 | C=C(C(=O)NCc1cccc(-c2ccc(OC(F)(F)F)cc2)c1)N(CC)S(=O)(=O)c1ccc(F)cc1 [Example 11, 2-[ethyl-(4-fluorophenyl)sulfonyl-amino]-N-[[3-[4-(trifluoromethoxy)phenyl]phenyl]methyl]prop-2-enamide] | – | – | 72 | 72
